Source: patent US12312347B2, “Azaindole derivative and use thereof as FGFR and C-Met inhibitor” (Wuxi Life Fountain Biotech Co., Ltd, priority 2018, dated 2025)
Counter-ions that a name gives are not always drawn.

Legend:
Type in all cases: biochemical
human FGFR1 = biological target: T1, human FGFR1 (Homo sapiens, UniProt P11362); assay: 33P isotope-labeled kinase activity test, FGFR1; details: ATP 5 μM
T1 construct: purchased Invitrogen PV3146
Method: (§1) The inhibitory activities of the tested compounds on human FGFR1, FGFR4, and c-Met were evaluated by the IC50 values measured using ^33P isotope-labeled kinase activity test (Reaction Biology Corp).
(§2) Buffer condition: 20 mM Hepes (pH 7.5), 10 mM MgCl2, 1 mM EGTA, 0.02% Brij35, 0.02 mg/mL BSA, 0.1 mM Na3VO4, 2 mM DTT, 1% DMSO.
Test procedure: The test compounds were dissolved in DMSO at room temperature and formulated to be 10 mM solutions for later use. The substrates were dissolved in freshly prepared buffer, and kinases to be tested were added and mixed well. The test compounds dissolved in DMSO were added to the above mixed reaction solutions by acoustic technique (Echo 550). […] After incubation for 15 min, ^33P-ATP (activity 0.01 μCi/μL, corresponding concentrations are listed in Table 1) was added to start the reaction. Supplier item number, batch number, as well as the concentration information in the reaction solution of FGFR1, FGFR4, c-Met and substrates thereof are listed in Table 1. […] The kinase activity data are expressed by comparison between the kinase activity in the test compound group and the kinase activity in the blank group (containing DMSO only). IC50 values were obtained by curve fitting with Prism4 software (GraphPad).

human FGFR4 = biological target: T2, human FGFR4 (Homo sapiens, UniProt P22455); assay: 33P isotope-labeled kinase activity test, FGFR4; details: ATP 100 μM
T2 construct: purchased Invitrogen P3054
T2 sequence (P22455 22-802): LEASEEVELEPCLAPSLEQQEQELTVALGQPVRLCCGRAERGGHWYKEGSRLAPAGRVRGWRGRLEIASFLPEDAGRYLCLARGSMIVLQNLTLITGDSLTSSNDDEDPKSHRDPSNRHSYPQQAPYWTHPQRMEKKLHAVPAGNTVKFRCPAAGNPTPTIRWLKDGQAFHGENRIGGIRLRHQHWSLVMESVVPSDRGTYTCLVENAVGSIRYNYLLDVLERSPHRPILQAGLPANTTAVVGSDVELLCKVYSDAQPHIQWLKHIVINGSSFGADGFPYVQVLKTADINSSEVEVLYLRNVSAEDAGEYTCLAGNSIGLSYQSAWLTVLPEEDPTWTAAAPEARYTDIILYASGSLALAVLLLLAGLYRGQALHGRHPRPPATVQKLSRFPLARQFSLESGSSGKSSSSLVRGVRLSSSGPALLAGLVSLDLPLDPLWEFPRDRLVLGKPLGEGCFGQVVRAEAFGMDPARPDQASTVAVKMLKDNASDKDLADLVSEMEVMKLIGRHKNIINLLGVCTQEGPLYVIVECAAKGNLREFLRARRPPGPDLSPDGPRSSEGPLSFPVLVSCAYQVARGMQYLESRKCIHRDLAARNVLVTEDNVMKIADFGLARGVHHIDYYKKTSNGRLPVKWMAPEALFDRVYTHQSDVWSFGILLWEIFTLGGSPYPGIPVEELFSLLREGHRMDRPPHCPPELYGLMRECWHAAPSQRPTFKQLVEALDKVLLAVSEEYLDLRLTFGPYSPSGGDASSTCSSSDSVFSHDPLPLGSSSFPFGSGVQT
Method: as §1, §2
(§3) Test procedure: The test compounds were dissolved in DMSO at room temperature and formulated to be 10 mM solutions for later use. The substrates were dissolved in freshly prepared buffer, and kinases to be tested were added and mixed well. The test compounds dissolved in DMSO were added to the above mixed reaction solutions by acoustic technique (Echo 550). The concentration of the compound in reaction solution was 1 μM, […], 3.91 nM, 0.977 nM, 0.244 nM, 0.061 nM, 0.0153 nM, 0.00381 nM or 10 μM, 2.50 μM, 0.62 μM, 0.156 μM, 39.1 nM, 9.8 nM, 2.4 nM, 0.61 nM, 0.15 nM, 0.038 nM. After incubation for 15 min, ^33P-ATP (activity 0.01 μCi/μL, corresponding concentrations are listed in Table 1) was added to start the reaction. Supplier item number, batch number, as well as the concentration information in the reaction solution of FGFR1, FGFR4, c-Met and substrates thereof are listed in Table 1. […] The kinase activity data are expressed by comparison between the kinase activity in the test compound group and the kinase activity in the blank group (containing DMSO only). IC50 values were obtained by curve fitting with Prism4 software (GraphPad).

human c-Met = biological target: T3, human c-Met (Homo sapiens, UniProt P08581); assay: 33P isotope-labeled kinase activity test, c-Met; details: ATP 10 μM
T3 construct: purchased Invitrogen PV3143
T3 sequence (P08581 25-1390): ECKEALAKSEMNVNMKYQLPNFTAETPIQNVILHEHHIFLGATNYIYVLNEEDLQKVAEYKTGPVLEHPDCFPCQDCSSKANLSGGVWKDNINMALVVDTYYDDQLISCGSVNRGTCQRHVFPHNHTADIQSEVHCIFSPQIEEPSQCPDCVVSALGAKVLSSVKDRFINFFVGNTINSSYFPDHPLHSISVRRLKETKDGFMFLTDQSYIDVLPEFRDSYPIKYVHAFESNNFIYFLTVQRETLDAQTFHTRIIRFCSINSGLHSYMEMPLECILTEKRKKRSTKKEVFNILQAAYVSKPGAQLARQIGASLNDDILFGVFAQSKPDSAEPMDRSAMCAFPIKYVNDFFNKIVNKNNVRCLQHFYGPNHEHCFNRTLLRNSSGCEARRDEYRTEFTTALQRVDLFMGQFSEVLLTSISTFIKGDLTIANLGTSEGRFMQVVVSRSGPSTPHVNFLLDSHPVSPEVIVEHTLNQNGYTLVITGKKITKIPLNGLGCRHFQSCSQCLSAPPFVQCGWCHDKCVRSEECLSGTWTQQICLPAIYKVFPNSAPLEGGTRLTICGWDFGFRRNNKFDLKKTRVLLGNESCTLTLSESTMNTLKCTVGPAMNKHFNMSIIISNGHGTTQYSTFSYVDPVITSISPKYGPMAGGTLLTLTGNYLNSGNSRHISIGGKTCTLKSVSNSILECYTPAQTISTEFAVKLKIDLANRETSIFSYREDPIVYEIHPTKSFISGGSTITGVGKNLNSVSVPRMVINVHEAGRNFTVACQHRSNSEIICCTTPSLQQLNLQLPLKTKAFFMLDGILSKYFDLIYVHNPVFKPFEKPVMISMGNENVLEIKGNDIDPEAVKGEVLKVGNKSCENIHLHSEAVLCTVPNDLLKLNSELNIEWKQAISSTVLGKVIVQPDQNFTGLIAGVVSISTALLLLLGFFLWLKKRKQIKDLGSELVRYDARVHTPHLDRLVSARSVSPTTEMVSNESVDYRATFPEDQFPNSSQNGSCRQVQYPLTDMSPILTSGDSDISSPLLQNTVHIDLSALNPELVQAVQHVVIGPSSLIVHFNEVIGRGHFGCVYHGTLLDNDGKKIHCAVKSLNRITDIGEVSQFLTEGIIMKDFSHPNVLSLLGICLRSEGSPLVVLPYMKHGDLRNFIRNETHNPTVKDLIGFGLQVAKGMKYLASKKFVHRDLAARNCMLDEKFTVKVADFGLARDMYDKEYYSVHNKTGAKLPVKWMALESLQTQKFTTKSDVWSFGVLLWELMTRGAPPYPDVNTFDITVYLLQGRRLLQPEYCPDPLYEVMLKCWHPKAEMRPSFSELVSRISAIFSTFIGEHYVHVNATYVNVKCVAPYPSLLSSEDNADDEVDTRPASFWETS
Method: as §1, §2, §3

T1 sequence (P11362 22-822): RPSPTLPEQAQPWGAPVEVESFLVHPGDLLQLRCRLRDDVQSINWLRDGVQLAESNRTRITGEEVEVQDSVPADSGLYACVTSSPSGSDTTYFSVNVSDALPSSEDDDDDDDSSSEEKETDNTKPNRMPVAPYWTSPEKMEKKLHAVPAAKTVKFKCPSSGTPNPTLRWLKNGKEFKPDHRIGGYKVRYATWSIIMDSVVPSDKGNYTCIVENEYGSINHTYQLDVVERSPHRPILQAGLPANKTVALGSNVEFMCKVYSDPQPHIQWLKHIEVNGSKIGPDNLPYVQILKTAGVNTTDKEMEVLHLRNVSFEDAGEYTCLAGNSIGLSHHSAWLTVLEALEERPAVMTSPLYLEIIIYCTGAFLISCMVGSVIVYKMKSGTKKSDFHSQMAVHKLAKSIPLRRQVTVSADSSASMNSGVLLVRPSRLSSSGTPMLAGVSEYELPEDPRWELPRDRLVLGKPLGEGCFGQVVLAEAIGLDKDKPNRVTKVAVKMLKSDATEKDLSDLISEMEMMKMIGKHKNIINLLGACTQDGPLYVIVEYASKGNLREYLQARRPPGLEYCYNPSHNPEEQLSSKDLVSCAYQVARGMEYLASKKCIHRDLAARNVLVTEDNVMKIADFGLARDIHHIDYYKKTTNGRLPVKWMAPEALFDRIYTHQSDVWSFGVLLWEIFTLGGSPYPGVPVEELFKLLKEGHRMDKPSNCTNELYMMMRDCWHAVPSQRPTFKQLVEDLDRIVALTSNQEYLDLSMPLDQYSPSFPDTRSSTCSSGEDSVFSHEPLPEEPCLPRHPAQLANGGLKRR

Row | SMILES | IC50 (human FGFR1) [nM] | IC50 (human FGFR4) [nM] | IC50 (human c-Met) [nM]
1 | COc1cc(OC)c(F)c(Cc2c[nH]c3ncc(-c4ccc5c(c4)NC(=O)C54CCNCC4)cc23)c1F [Trifluoroacetate salt of embodiment 54] | 2.7 | 58.5 | 16.5
2 | COc1ccc(Cl)c(Cc2c[nH]c3ncc(-c4cnn(C5CCNCC5)c4)nc23)c1Cl [Embodiment 7] | 85.9 | > 10000 | 41.5
3 | COc1cc(OC)c(F)c(Cc2c[nH]c3ncc(-c4cnn(CC(C)(C)O)c4)cc23)c1F [Trifluoroacetate salt of embodiment 66] | 0.5 | 9 | 28
4 | COc1cc(OC)c(F)c(Cc2c[nH]c3ncc(-c4cnn(C5CN(S(C)(=O)=O)C5)c4)cc23)c1F [Trifluoroacetate salt of embodiment 23] | 4.85 | 43.9 | 21
5 | COc1cc(OC)c(F)c(Cc2c[nH]c3ncc(-c4c(C)nn(CCO)c4C)cc23)c1F [Hydrochloride of embodiment 34] | 8.9 | 126 | 86.7
6 | CCN1CCC(n2cc(-c3cnc4[nH]cc(Cc5c(F)ccc(OC)c5F)c4c3)c(C)n2)CC1 [Trifluoroacetate salt of embodiment 39] | 29 | 752 | 24.5
7 | COc1cc(OC)c(F)c(Cc2c[nH]c3ncc(-c4cccc(C5(C#N)CCNCC5)c4)cc23)c1F [Trifluoroacetate salt of embodiment 59] | 0.8 | 14.7 | 127
8 | COc1cc(OC)c(F)c(Cc2c[nH]c3ncc(-c4cnn(CCO)c4)nc23)c1F [Trifluoroacetate salt of embodiment 8] | 0.43 | 20.7 | 496
9 | COc1cc(OC)c(F)c(Cc2c[nH]c3ncc(-c4cnn(C5CCN(C)CC5)c4)cc23)c1F [Trifluoroacetate salt of embodiment 13] | 0.04 | 9 | 7.62
10 | COc1cc(OC)c(F)c(Cc2c[nH]c3ncc(-c4ccc(C5(C#N)CCNCC5)cc4)cc23)c1F [Hydrochloride of embodiment 57] | 1.1 | 21.4 | 49.4
11 | COc1cc(OC)c(F)c(Cc2c[nH]c3ncc(-c4cnn(C5CCN(C(C)C)CC5)c4)cc23)c1F [Trifluoroacetate salt of embodiment 14] | 1.34 | 27.5 | 14
12 | COc1cc(OC)c(F)c(Cc2c[nH]c3ncc(-c4cnn(C5CCN(CCO)CC5)c4)cc23)c1F [Embodiment 16] | 0.73 | 16.1 | 10.5
13 | COc1cc(OC)c(F)c(Cc2c[nH]c3ncc(-c4cnc5c(c4)CNCC5)cc23)c1F [Trifluoroacetate salt of embodiment 52] | 0.06 | 13.7 | 137
14 | COc1cc(OC)c(F)c(Cc2c[nH]c3ncc(-c4cnn(CC(O)CNC(C)C)c4)cc23)c1F (stereo not drawn) [Hydrochloride of embodiment 71] | 0.4 | 4.9 | 32.8
15 | COc1cc(OC)c(F)c(Cc2c[nH]c3ncc(-c4cnn(C5CCC(O)CC5)c4)cc23)c1F (stereo not drawn) [Trifluoroacetate salt of embodiment 31] | 0.9 | 9.9 | 6.9
16 | CCN1Cc2cc(-c3cnc4[nH]cc(Cc5c(F)c(OC)cc(OC)c5F)c4c3)cnc2C1 [Trifluoroacetate salt of embodiment 51] | 0.27 | 3 | 84.1

Continued by falling IC50 (human FGFR1), values first:

Row | IC50 (human FGFR1) [nM] | IC50 (human FGFR4) [nM] | IC50 (human c-Met) [nM] | SMILES
17 | 13.7 | 262 | 5.7 | COc1ccc(F)c(Cc2c[nH]c3ncc(-c4cnn(C5CCNCC5)c4)cc23)c1F [Trifluoroacetate salt of embodiment 19]
18 | 2.2 | 33.4 | 320 | CCN1CCC(C#N)(c2cccc(-c3cnc4[nH]cc(Cc5c(F)c(OC)cc(OC)c5F)c4c3)c2)CC1 [Trifluoroacetate salt of embodiment 60]
19 | 2.2 | 44.9 | 22.8 | CCN1CCC2(CC1)C(=O)Nc1cc(-c3cnc4[nH]cc(Cc5c(F)c(OC)cc(OC)c5F)c4c3)ccc12 [Trifluoroacetate salt of embodiment 55]
20 | 2.1 | 31.9 | 16.9 | CCN1CC(n2cc(-c3cnc4[nH]cc(Cc5c(F)c(OC)cc(OC)c5F)c4c3)cn2)C1 [Trifluoroacetate salt of embodiment 25]
21 | 2 | 25.2 | 55.9 | COc1cc(OC)c(F)c(CC2=CN=C3N=CC(c4cnn(CCN5CCOCC5)c4)=CC23)c1F (stereo not drawn) [Trifluoroacetate salt of embodiment 21]
22 | 1.94 | 25.9 | 16 | COc1cc(OC)c(F)c(Cc2c[nH]c3ncc(-c4cnn(C5CCN(C6COC6)CC5)c4)cc23)c1F [Trifluoroacetate salt of embodiment 15]
23 | 1.9 | 53.2 | 7.8 | COc1cc(OC)c(F)c(Cc2c[nH]c3ncc(-c4ccc5c(c4)NC(=O)C54CCN(C)CC4)cc23)c1F [Trifluoroacetate salt of embodiment 56]
24 | 1.2 | 23.5 | 162 | CCN1CCC(C#N)(c2ccc(-c3cnc4[nH]cc(Cc5c(F)c(OC)cc(OC)c5F)c4c3)cc2)CC1 [Trifluoroacetate salt of embodiment 58]
25 | 0.8 | 18.3 | 11.3 | COc1cc(OC)c(F)c(Cc2c[nH]c3ncc(-c4cnn(C5CCNCC5)c4)cc23)c1F [Embodiment 9]
26 | 0.7 | 4.5 | 243 | COc1cc(OC)c(F)c(Cc2c[nH]c3ncc(-c4cncc(C5(C#N)CCNCC5)c4)cc23)c1F [Trifluoroacetate salt of embodiment 61]
27 | 0.6 | 2.5 | 32.4 | COc1cc(OC)c(F)c(Cc2c[nH]c3ncc(-c4cnn(CC(O)CO)c4)cc23)c1F (stereo not drawn) [Hydrochloride of embodiment 73]
28 | 0.6 | 8.4 | 35.3 | CCN(CC)CCn1cc(-c2cnc3[nH]cc(Cc4c(F)c(OC)cc(OC)c4F)c3c2)cn1 [Hydrochloride of embodiment 69]
29 | 0.5 | 5 | 31.4 | COCCNCCn1cc(-c2cnc3[nH]cc(Cc4c(F)c(OC)cc(OC)c4F)c3c2)cn1 [Hydrochloride of embodiment 70]
30 | 0.42 | 2.9 | 8.9 | COc1cc(OC)c(F)c(Cc2c[nH]c3ncc(-c4cnn(CCO)c4)cc23)c1F [Hydrochloride of embodiment 46]
31 | 0.4 | 21.5 | 14.6 | CCN1CCC(n2ncc(-c3cnc4[nH]cc(Cc5c(F)c(OC)cc(OC)c5F)c4c3)c2Cl)CC1 [Hydrochloride of embodiment 40]
32 | 0.04 | 15.2 | 74.3 | CCN1CCC(n2cc(-c3cnc4[nH]cc(Cc5c(F)c(OC)cc(OC)c5F)c4n3)cn2)CC1 [Trifluoroacetate salt of embodiment 6]
